# According to patent EP4471049A1 (Zealand Pharma A/S, priority 2023, dated 2024):
# *1 amine or outer side, *2 acyl side, *3 side chain or, on linkers, in order; H or OH if unused. Where a SMILES comes first, the peptide text is derived from it. Bridges are numbered along the chain shown (N, C = ends). [ ]: non-standard residue; d: D form. 2Nal = N[C@@H](Cc1ccc2ccccc2c1)C(=O)O; AEF = NCCOc1ccc(C[C@H](N)C(=O)O)cc1; X1 = O=C(Cc1ccc(CN[*:1])cc1)[*:2]; 3Pal = N[C@@H](Cc1cccnc1)C(=O)O; Cit = NC(=O)NCCC[C@H](N)C(=O)O; αMeL = CC(C)C[C@](C)(N)C(=O)O; Orn = NCCC[C@H](N)C(=O)O; Dab = NCC[C@H](N)C(=O)O
# Key:
# human IL-23R = molecular target: T1, human IL-23R (Homo sapiens, UniProt Q5VWK5); assay: biochemical; conditions: for Emax: read-out: % displacement (hIL-23R binding)
# T1 sequence (Q5VWK5 22-629): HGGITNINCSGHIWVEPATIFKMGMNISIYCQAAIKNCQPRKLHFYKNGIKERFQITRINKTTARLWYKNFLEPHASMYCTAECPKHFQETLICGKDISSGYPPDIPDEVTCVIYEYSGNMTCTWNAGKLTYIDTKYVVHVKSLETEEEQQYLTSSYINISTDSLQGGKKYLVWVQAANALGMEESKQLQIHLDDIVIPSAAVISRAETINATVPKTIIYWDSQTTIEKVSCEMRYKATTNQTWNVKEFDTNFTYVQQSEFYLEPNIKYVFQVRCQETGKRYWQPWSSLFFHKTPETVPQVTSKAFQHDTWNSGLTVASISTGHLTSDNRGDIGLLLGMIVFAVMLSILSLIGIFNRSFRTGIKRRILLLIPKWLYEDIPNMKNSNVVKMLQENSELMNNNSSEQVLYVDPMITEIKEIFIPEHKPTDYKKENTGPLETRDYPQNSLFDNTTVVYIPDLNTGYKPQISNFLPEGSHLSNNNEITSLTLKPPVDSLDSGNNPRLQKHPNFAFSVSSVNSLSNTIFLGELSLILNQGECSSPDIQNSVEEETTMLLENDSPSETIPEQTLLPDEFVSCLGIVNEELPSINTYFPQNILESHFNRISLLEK
# From the text: The compound binding affinity for IL-23R was estimated by the ability of compounds to displace a fluorophore-labelled reference compound from the human IL-23R. The assay principle relies on Bioluminescence Resonance Energy Transfer (BRET) between a fluorophore-labelled reference compound binding to the IL-23R part of a fusion protein consisting of the IL-23R fused to a Nanoluc luciferase enzyme (Nanoluc). The Nanoluc is placed in the N-terminus in close proximity to the binding domain of the ligand. Upon close proximity between the fluorophore of the fluorophore-labelled compound and the Nanoluc of the fusion protein, bioluminescence energy generated from conversion of a Nanoluc substrate, is transferred to the fluorophore resulting in an increase in BRET. In presence of an unlabelled compound, the unlabelled compound displaces the fluorophore-labelled peptide from its binding site resulting in a decrease in BRET. The concentration for which half of the fluorophore-labelled peptide is displaced by the unlabelled compound depends on the affinity of the compound for the IL-23R, and is termed the IC50 concentration.
# The plasmid also contained a gene to confer resistance for the antibiotic hygromycin. A cell line stably expressing the Nluc-IL23R fusion protein was generated by transfection of HEK293 cells with the expression plasmid and selected with hygromycin for 3 weeks in Growth medium consisting of DMEM w/ Glutamax-I containing, 10% V/V FBS, 1% V/V P/S, 1 mM Sodium Pyruvate, and 1X NEAA, and 0.3 mg/mL hygromycin. The remaining cells were propagated and considered a stable expressing Nluc-IL23R fusion protein pool clone.
# Cells expressing the Nluc-IL23R fusion protein were expanded in Growth medium and membranes prepared by homogenization of a cell pellet from 18 T175 flasks (4 °C in subsequent steps). The cell pellet was lysed Tris 10 mM, 7.5, 1 mM EDTA and protease inhibitors (Complete, Roche) and homogenized using a 15 mL glass-dounce by 50 strokes. The homogenate was spun at spin @1500 rpm for 10 min, the supernatant transferred to SV-34 tubes and spun at 40000g for 20 min at 4 °C to pellet the crude membranes. The supernatant was then removed, the pellet resuspended in 5 mL buffer containing 50 mM HEPES pH 7.4, 5 mM EGTA, and 5 mM MgCl2, and homogenized. Aliquots of the resuspended and homogenized membranes containing the Nluc-IL23R fusion protein were stored at -80 °C until use.
# The plate was sealed with light impermeable plate seals, and incubated on an orbital shaker 400 rpm for 2 hours at room temperature. To determine the BRET ratio, the plate seal was removed and 25 µL of the Nanoluc substrate (Promega N1572) diluted 1:500 was added to each well and incubated for 1-2 minutes on an orbital shaker at 400 rpm. […] The BRET ratio was calculated as the fluorescence from the TAMRA/nanoluc bioluminescence.
# Compound potency (IC50) and maximal displacement (% displacement) were estimated by computer-aided curve fitting using a 4-parameter logistic (4PL) non-linear model. […]
# In this application, the inventors provide the data as IC50 values.
# [1] = Peptide stability in simulated intestinal fluid (SIF); type: in vitro ADME; conditions: 37 °C, pH 6.8, porcine pancreatin 10 g/L, 10 µM; for remaining at 1 h, 10 µM / remaining at 4 h, 10 µM: pig, simulated intestinal fluid (SIF) with porcine pancreatin; for remaining at 4 h, 10 µM: read-out: SIF (% remaining 4 h)
# Protocol: SGF was prepared by dissolving sodium chloride (0.2 g) in 50 mL of water. A volume of 0.7 mL of 10 M HCl was added to adjust the pH of the solution to 1.2 and the volume made up to 100 mL with water. […] SIF was prepared by dissolving monobasic potassium phosphate (0.68 g) in 50 mL of water and adjusting the pH to 6.8 with 1 M NaOH. The volume was subsequently made up to 100 mL with water. 200 mg porcine pancreatin (P1625, Sigma Aldrich) was gently dissolved into 20 mL preheated (37 °C) solution (10 g/L) immediately prior to the incubation.
# The incubation was performed at 37 °C with gentle shaking. […] After the last timepoint, the sampling plate was mixed for 10 min on a shaking table and centrifuged 10 min at 2200 g. 70 µL resulting supernatant was diluted with 150 µL water, mixed and centrifugated before analysis by liquid chromatography high resolution mass spectrometry. […] Percent remaining at each timepoint was calculated relative to timepoint zero based on absolute peak areas.
# Compounds with a SIF stability (after 4 h) above 70% are considered highly SIF stable.
structure (smiles),measurement,setting,value
"CNC(=O)[C@H](Cc1cccnc1)NC(=O)[C@H](CCN)NC(=O)[C@@H]1CCC(=O)NCc2ccc(cc2)CC(=O)N[C@@H](C)C(=O)N[C@H]2CCC(=O)NCC[C@H](NC(=O)[C@H](CCC(N)=O)NC(=O)[C@H](Cc3c[nH]c4ccccc34)NC2=O)C(=O)N[C@@H](CCc2ccccc2)C(=O)N[C@@H](Cc2ccc3ccccc3c2)C(=O)NC(C)(C)C(=O)N1 [Compound 41, [4-Aminomethyl-phenylacetyl](1c)*AE(2c)WQ[Dab](2c)[hPhe][2-Nal][Aib]E(1c)[Dab][3-(3-Pyridyl)-Ala]-[NHMe]]",% displacement (hIL-23R binding),human IL-23R,104%
same,IC50,human IL-23R,0.28 nM
same,"remaining at 1 h, 10 µM",[1],100%
same,"remaining at 4 h, 10 µM",[1],95%
"CNC(=O)[C@H](Cc1cccnc1)NC(=O)[C@H](CO)NC(=O)[C@@H]1CCC(=O)NCc2ccc(cc2)CC(=O)N[C@@H](CO)C(=O)N[C@H]2CCC(=O)NCC[C@H](NC(=O)[C@H](CCC(N)=O)NC(=O)[C@H](Cc3c[nH]c4ccccc34)NC2=O)C(=O)N[C@@H](Cc2ccc(OCCN)cc2)C(=O)N[C@@H](Cc2ccc3ccccc3c2)C(=O)N[C@@](C)(CC(C)C)C(=O)N1 [Compound 31, [4-Aminomethyl-phenylacetyl](1c)*SE(2c)WQ[Dab](2c)[Y(2-aminoethoxy)][2-Nal][2-Me-Leu]E(1c)S[3-(3-Pyridyl)-Ala]-[NHMe]] ([X1]SEWQ[Dab][AEF][2Nal][αMeL]ES[3Pal]-NHMe; lactam 3-6, N-10)",% displacement (hIL-23R binding),human IL-23R,97%
same,IC50,human IL-23R,0.012 nM
same,"remaining at 4 h, 10 µM",[1],41%
"CNC(=O)[C@H](Cc1cccnc1)NC(=O)[C@H](CCN)NC(=O)[C@@H]1CCC(=O)NCc2ccc(cc2)CC(=O)N[C@@H](Cc2ccccc2)C(=O)N[C@H]2CCC(=O)NCC[C@H](NC(=O)[C@H](CCC(N)=O)NC(=O)[C@H](Cc3c[nH]c4ccccc34)NC2=O)C(=O)N[C@@H](Cc2ccc(OCCN)cc2)C(=O)N[C@@H](Cc2ccc3ccccc3c2)C(=O)N[C@@](C)(CC(C)C)C(=O)N1 [Compound 21, [4-Aminomethyl-phenylacetyl](1c)*FE(2c)WQ[Dab](2c)[Y(2-aminoethoxy)][2-Nal][2-Me-Leu]E(1c)[Dab][3-(3-Pyridyl)-Ala]-[NHMe]] ([X1]FEWQ[Dab][AEF][2Nal][αMeL]E[Dab][3Pal]-NHMe; lactam 3-6, N-10)",IC50,human IL-23R,0.014 nM
same,Emax,human IL-23R,95%
same,"remaining at 1 h, 10 µM",[1],53%
"CNC(=O)[C@H](Cc1cccnc1)NC(=O)[C@H](CCN)NC(=O)[C@@H]1CCC(=O)NCc2ccc(cc2)CC(=O)N[C@@H](CO)C(=O)N[C@H]2CCC(=O)NCC[C@H](NC(=O)[C@H](CCC(=O)N(C)C)NC(=O)[C@H](Cc3c[nH]c4ccccc34)NC2=O)C(=O)N[C@@H](Cc2ccc(OCCN)cc2)C(=O)N[C@@H](Cc2ccc3ccccc3c2)C(=O)N[C@@](C)(CC(C)C)C(=O)N1 [Compound 30, [4-Aminomethyl-phenylacetyl](1c)*SE(2c)W[Q(2Me)][Dab](2c)[Y(2-aminoethoxy)][2-Nal][2-Me-Leu]E(1c)[Dab][3-(3-Pyridyl)-Ala]-[NHMe]] ([X1]SEWE(NMe2)[Dab][AEF][2Nal][αMeL]E[Dab][3Pal]-NHMe; lactam 3-6, N-10)",% displacement (hIL-23R binding),human IL-23R,104%
same,IC50,human IL-23R,0.018 nM
same,"remaining at 4 h, 10 µM",[1],94%
"CNC(=O)[C@H](Cc1cccnc1)NC(=O)[C@H](CCN)NC(=O)[C@@H]1CCC(=O)NCc2ccc(cc2)CC(=O)N[C@@H](CO)C(=O)N[C@H]2CCC(=O)NCC[C@H](NC(=O)[C@H](CCCNC(N)=O)NC(=O)[C@H](Cc3c[nH]c4ccccc34)NC2=O)C(=O)N[C@@H](Cc2ccc(OCCN)cc2)C(=O)N[C@@H](Cc2ccc3ccccc3c2)C(=O)N[C@@](C)(CC(C)C)C(=O)N1 [Compound 26, [4-Aminomethyl-phenylacetyl](1c)*SE(2c)W[Cit][Dab](2c)[Y(2-aminoethoxy)][2-Nal][2-Me-Leu]E(1c)[Dab][3-(3-Pyridyl)-Ala]-[NHMe]] ([X1]SEW[Cit][Dab][AEF][2Nal][αMeL]E[Dab][3Pal]-NHMe; lactam 3-6, N-10)",IC50,human IL-23R,0.015 nM
same,Emax,human IL-23R,95%
same,"remaining at 4 h, 10 µM",[1],91%
"CNC(=O)[C@H](Cc1cccnc1)NC(=O)[C@H](CCN)NC(=O)[C@@H]1CCC(=O)NCc2ccc(cc2)CC(=O)N[C@@H](CO)C(=O)N[C@H]2CCC(=O)NCC[C@H](NC(=O)[C@H](CCCN)NC(=O)[C@H](Cc3c[nH]c4ccccc34)NC2=O)C(=O)N[C@@H](Cc2ccc(OCCN)cc2)C(=O)N[C@@H](Cc2ccc3ccccc3c2)C(=O)N[C@@](C)(CC(C)C)C(=O)N1 [Compound 28, [4-Aminomethyl-phenylacetyl](1c)*SE(2c)W[Orn][Dab](2c)[Y(2-aminoethoxy)][2-Nal][2-Me-Leu]E(1c)[Dab][3-(3-Pyridyl)-Ala]-[NHMe]] ([X1]SEW[Orn][Dab][AEF][2Nal][αMeL]E[Dab][3Pal]-NHMe; lactam 3-6, N-10)",% displacement (hIL-23R binding),human IL-23R,97%
same,"remaining at 4 h, 10 µM",[1],110%
"CC(C)C[C@@H]1NC(=O)[C@H](Cc2c[nH]c3ccccc23)NC(=O)[C@H](Cc2c[nH]c3ccccc23)NC(=O)[C@@H]2CSCC(=O)CSC[C@H](NC(=O)[C@H]([C@@H](C)O)NC(=O)[C@@H](NC(=O)CN)CSCC(=O)CSC[C@@H](C(=O)N[C@@H](CO)C(N)=O)NC1=O)C(=O)N[C@@H](Cc1c[nH]c3ccccc13)C(=O)N[C@@H](CCC(=O)O)C(=O)N2 (single isomer, unassigned) [I1 (isomer 3), H-GC(1a)TC(2a)WEC(2a)WWLC(1a)S-[NH2], reference compound]",SIF (% remaining 1 h),[1],0%
same,SIF (% remaining 4 h),[1],0%
"CSCC[C@H](NC(=O)[C@@H]1CSCC(=O)CSC[C@H](NC(=O)[C@@H](N)CCC(=O)O)C(=O)N[C@@H](Cc2c[nH]c3ccccc23)C(=O)N[C@@H](CC(C)C)C(=O)N[C@H]2CSCC(=O)CSC[C@H](NC(=O)[C@H](CC(N)=O)NC(=O)[C@H](CCCNC(=N)N)NC(=O)[C@H](Cc3ccc(O)cc3)NC(=O)[C@H](Cc3ccc(O)cc3)NC2=O)C(=O)N[C@@H](CC(N)=O)C(=O)N1)C(N)=O (single isomer, unassigned) [I4 (isomer 3), H-EC(4a)WLC(5a)YYRNC(5a)NC(4a)M-[NH2], reference compound]",SIF (% remaining 1 h),[1],0%
same,SIF (% remaining 4 h),[1],0%
